The text below walks through data of the supplement of paper PMC10307832.

Common to all, as to experiment: relative viability (nuclei count vs DMSO), 5 days (fraction); higher = more cells survive
Compound in test [1]: C[C@]12O[C@H](C[C@]1(O)CO)n1c3ccccc3c3c4c(c5c6ccccc6n2c5c31)CNC4=O [Lestaurtinib] + N=C(N)NC(=N)NCCc1ccccc1 [Phenformin] (partner 250 µM)
Summed up:
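After 5 days of treatment, lung cancer cells in 1536-well plates were fixed and stained in a single step (final 0.05% Triton X-100, 1% formaldehyde, 1 ug/ml Hoechst) and their nuclei counted on 4× images. Treatment had been applied by pin tool the day after seeding as one drug alone or as a fixed anchor-drug dose with five library-drug doses (not always all listed) in √10 steps. Relative viability is the nuclei count of treated wells divided by that of vehicle wells, and values are medians of duplicate plates.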

Compound in the next test: C1=CC(=CC=C1C2=CC(=C(S2)NC(=O)N)C(=O)N)F [TPCA-1]
In short, it runs like this: (§1)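 Five library-drug doses, separated by factors of √10, were pinned into 1536-well plates holding lung cancer cell lines after an overnight stay at 37 °C. Cells were fixed, permeabilised and Hoechst-stained in one step after 5 days without medium change, then imaged at 4×. Viability compares treated-well with vehicle-well nuclei, counted in MetaXpress, as a median across plates. Passing plates had control CV below 25% and at least one doubling.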

Compound in a further test: C[C@]12O[C@H](C[C@]1(O)CO)n1c3ccccc3c3c4c(c5c6ccccc6n2c5c31)CNC4=O [Lestaurtinib]
Summed up:
as §1

Compound in test [2]: C1/C(=C\C2=CC=CS2)/C(=O)/C(=C/C3=CC=CS3)/C1
Summed up:
as §1

On to UMC-11, for which the relative viability turned out to be 0.359 in test [1] (first compound 0.005 µM); 0.327 in test [1] (first compound 0.01581 µM); 0.239 in test [1] (first compound 0.05 µM); 0.176 in test [1] (first compound 0.1581 µM); 0.144 in test [1] (first compound 0.5 µM); 1.03 with TPCA-1 (0.04 µM). In addition, the relative viability with TPCA-1 (0.1265 µM) was found to be 0.87; with TPCA-1 (0.4 µM) it was 1.03; with TPCA-1 (1.265 µM) it was 0.976; with TPCA-1 (4 µM), 0.374; in the test with Lestaurtinib (0.005 µM), 1.01; with Lestaurtinib (0.01581 µM), 0.958. Further, the relative viability in the test with Lestaurtinib (0.05 µM) is 0.615; with Lestaurtinib (0.1581 µM), 0.353; with Lestaurtinib (0.5 µM) it was 0.19; in test [2] (0.2 µM), 0.975; in test [2] (0.6325 µM) it was 0.993; in test [2] (2 µM) it was 0.954. For the same cell line, the values for the relative viability in test [2] (6.325 µM) and in test [2] (20 µM) were 0.711 and 0.941, respectively.
